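96-well plates; 48 h exposure; 5 concentrations. Endpoints by linear interpolation between flanking doses. Not reached: highest tested concentration assigned. GI50 is the concentration that inhibits growth by half.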 Calls of active or inactive are those of the source. Cut-off read from the data, not from the text of the source: active = GI50 up to about 1.1 µM and inactive = higher.
What was measured:
Assay in all cases: growth of human tumour cells (NCI), 48 h
[1] = tested on: DU-145
[2] = tested on: ACHN
[3] = tested on: K562
[4] = tested on: T47D
[5] = tested on: OVCAR-3
[6] = tested on: SW-620
[7] = tested on: Hs-578T
[8] = tested on: SF-295
[9] = tested on: SR
[10] = tested on: LOX IMVI
[11] = tested on: SN12C
[12] = tested on: OVCAR-8
[13] = tested on: SNB-75
[14] = tested on: 786-0
[15] = tested on: NCI-H522
[16] = tested on: Malme-3M
[17] = tested on: OVCAR-5
[18] = tested on: LXFL 529
[19] = tested on: MCF7
[20] = tested on: HOP-18
[21] = tested on: KM12
[22] = tested on: NCI-H23
[23] = tested on: HCC 2998
[24] = tested on: NCI-H460
[25] = tested on: UACC-62
[26] = tested on: COLO 205
[27] = tested on: RXF 393
[28] = tested on: CCRF-CEM
[29] = tested on: MOLT-4
[30] = tested on: M19-MEL
[31] = tested on: UO-31
[32] = tested on: NCI-H226
[33] = tested on: U-251
[34] = tested on: EKVX
[35] = tested on: HCT-116
[36] = tested on: HT-29
[37] = tested on: HOP-92
[38] = tested on: DMS-273
[39] = tested on: SNB-78
[40] = tested on: IGROV-1
[41] = tested on: MDA-MB-435
[42] = tested on: HL-60
[43] = tested on: SF-268
[44] = tested on: PC-3
[45] = tested on: SF-539
[46] = tested on: UACC-257
[47] = tested on: SNB-19
[48] = tested on: SK-MEL-5
[49] = tested on: SK-MEL-28
[50] = tested on: OVCAR-4
[51] = tested on: RPMI-8226
[52] = tested on: CAKI-1
[53] = tested on: MDA-N
[54] = tested on: MDA-MB-231
[55] = tested on: TK-10
[56] = tested on: NCI/ADR-RES
[57] = tested on: A498
[58] = tested on: HCT-15
[59] = tested on: M14
[60] = tested on: SK-MEL-2
[61] = tested on: SK-OV-3
[62] = tested on: KM-20L2
[63] = tested on: A549
[64] = tested on: XF498

O=C1C(Cl)=C(N2CCN(CCOCCO)CC2)C(=O)c2ccccc21 was tested, and the GI50 [1] was 19.2 µM (inactive), the GI50 [2] was 7.36 µM (inactive) and the GI50 [3] was 2.2 µM (inactive). For the same compound, the GI50 [4] was 1.85 µM (inactive), the GI50 [5] was 2.85 µM (inactive) and the GI50 [6] was 1.72 µM (inactive). The GI50 [7] was 19.1 µM (inactive), the GI50 [8] was 18 µM (inactive) and the GI50 [9] was 2.72 µM (inactive). The GI50 [10] was 6.4 µM (inactive), the GI50 [11] was 15.2 µM (inactive) and the GI50 [12] was 14.9 µM (inactive). The GI50 [13] was 14.2 µM (inactive), the GI50 [14] was 11.7 µM (inactive) and the GI50 [15] was 1.77 µM (inactive). For the same compound, the GI50 [16] was 6.07 µM (inactive), the GI50 [17] was 22.4 µM (inactive) and the GI50 [18] was 1.79 µM (inactive). For the same compound, the GI50 [19] was 3.56 µM (inactive), the GI50 [20] was 16.3 µM (inactive) and the GI50 [21] was 16.3 µM (inactive). For the same compound, the GI50 [22] was 13.6 µM (inactive), the GI50 [23] was 18.2 µM (inactive) and the GI50 [24] was 17.9 µM (inactive). For the same compound, the GI50 [25] was 6.32 µM (inactive), the GI50 [26] was 15.2 µM (inactive) and the GI50 [27] was 3.13 µM (inactive). The GI50 [28] was 2.33 µM (inactive), the GI50 [29] was 2.05 µM (inactive) and the GI50 [30] was 3.82 µM (inactive). The GI50 [31] was 7.73 µM (inactive), the GI50 [32] was 16.6 µM (inactive) and the GI50 [33] was 17.3 µM (inactive). For the same compound, the GI50 [34] was 18.4 µM (inactive), the GI50 [35] was 3.97 µM (inactive) and the GI50 [36] was 16 µM (inactive). The GI50 [37] was 1.49 µM (inactive), the GI50 [38] was 16.9 µM (inactive) and the GI50 [39] was 15.3 µM (inactive). The GI50 [40] was 15.3 µM (inactive), the GI50 [41] was 3.41 µM (inactive) and the GI50 [42] was 1.67 µM (inactive). The GI50 [43] was 16.4 µM (inactive), the GI50 [44] was 18 µM (inactive) and the GI50 [45] was 18.9 µM (inactive). The GI50 [46] was 5.12 µM (inactive), the GI50 [47] was 23.8 µM (inactive) and the GI50 [48] was 14.7 µM (inactive). The GI50 [49] was 17.3 µM (inactive), the GI50 [50] was 2.19 µM (inactive) and the GI50 [51] was 3.45 µM (inactive). The GI50 [52] was 15.7 µM (inactive), the GI50 [53] was 2.18 µM (inactive) and the GI50 [54] was 4.43 µM (inactive). For the same compound, the GI50 [55] was 20.2 µM (inactive), the GI50 [56] was 12.2 µM (inactive) and the GI50 [57] was 18.5 µM (inactive). The GI50 [58] was 11.9 µM, the GI50 [59] was 9.29 µM (inactive) and the GI50 [60] was 8.89 µM (inactive). For the same compound, the GI50 [61] was 15.3 µM (inactive), the GI50 [62] was 18 µM (inactive) and the GI50 [63] was 18.7 µM (inactive). The GI50 [64] was 2.55 µM (inactive).
